Converted amounts (≈) assume the structure as drawn.

One assay concerns Salmonella paratyphi. As to the kind of experiment: Antibacterial activity against Salmonella paratyphi assessed as zone of inhibition at 100 ug/well measured after 24 hrs by agar well diffusion method. Format: functional, Salmonella enterica subsp. enterica serovar Paratyphi A. Conditions: Salmonella enterica, read-out: DIZ. In general terms: In agar diffusion tests the substance spreads into inoculated agar from a disc or well.
As for `CC1(C)O[C@H]2O[C@@H]3COB(c4cccc(/C=N/c5ccccc5)c4)O[C@@H]3[C@H]2O1`, the zone of inhibition at 100 µg/disc came to 21 mm.
On to `CC1(C)O[C@H]2O[C@@H]3COB(c4cccc(/N=C/c5ccccc5O)c4)O[C@@H]3[C@H]2O1`, for which the zone of inhibition at 100 µg/disc amounted to 13 mm.

The test system of another assay is Streptococcus mutans. As to the kind of experiment: Antibacterial activity against Streptococcus mutans MTCC 497 assessed as zone of inhibition at 100 ug/well measured after 24 hrs by agar well diffusion method. To be noted: MTCC 497, 24 h, read-out: DIZ. The format is functional.
For `CC1(C)O[C@H]2O[C@@H]3COB(c4cccc(/C=N/c5ccccc5)c4)O[C@@H]3[C@H]2O1`, the zone of inhibition at 100 µg/disc is 21 mm.
The same measure, in the same setting: the value for `CC1(C)O[C@H]2O[C@@H]3COB(c4cccc(/N=C/c5ccccc5O)c4)O[C@@H]3[C@H]2O1` was 20 mm.

The next assay concerns Staphylococcus aureus. The assay can be described thus: Antibacterial activity against Staphylococcus aureus MTCC 3160 assessed as zone of inhibition at 100 ug/well measured after 24 hrs by agar well diffusion method. The format is functional. Conditions: MTCC 3160, 24 h, read-out: DIZ.
As to `CC1(C)O[C@H]2O[C@@H]3COB(c4cccc(/C=N/c5ccccc5)c4)O[C@@H]3[C@H]2O1`, the zone of inhibition at 100 µg/disc came to 13 mm.
On the same count and under the same terms, the value for `CC1(C)O[C@H]2O[C@@H]3COB(c4cccc(/N=C/c5ccccc5O)c4)O[C@@H]3[C@H]2O1` was 13 mm.

In another assay the test system is Salmonella typhi. As to the kind of experiment: Antibacterial activity against Salmonella typhi assessed as zone of inhibition at 100 ug/well measured after 24 hrs by agar well diffusion method. Format: functional, Salmonella enterica subsp. enterica serovar Typhi. Conditions: Salmonella enterica, read-out: DIZ.
In the case of `CC1(C)O[C@H]2O[C@@H]3COB(c4cccc(/C=N/c5ccccc5)c4)O[C@@H]3[C@H]2O1`, the zone of inhibition at 100 µg/disc is 21 mm.
Still for that read-out and setting: next, `CC1(C)O[C@H]2O[C@@H]3COB(c4cccc(/N=C/c5ccccc5O)c4)O[C@@H]3[C@H]2O1`: 22 mm.

A further assay relates to Candida albicans. As to the kind of experiment: Antifungal activity against Candida albicans MTCC 3017 assessed as zone of inhibition at 100 ug/well measured after 48 hrs by agar well diffusion method. Format: functional. To be noted: MTCC 3017, 48 h, read-out: DIZ.
As to `CC1(C)O[C@H]2O[C@@H]3COB(c4cccc(/C=N/c5ccccc5)c4)O[C@@H]3[C@H]2O1`, the zone of inhibition at 100 µg/disc was 11 mm.
On to `CC1(C)O[C@H]2O[C@@H]3COB(c4cccc(/N=C/c5ccccc5O)c4)O[C@@H]3[C@H]2O1`, for which the zone of inhibition at 100 µg/disc was 14 mm.

A further assay deals with Candida albicans. The assay can be described thus: Antifungal activity against Candida albicans MTCC 3017 measured after 48 hrs by NCCL protocol based broth dilution method. Format: functional. To be noted: MTCC 3017, 48 h.
In the case of `CC1(C)O[C@H]2O[C@@H]3COB(c4cccc(/C=N/c5ccccc5)c4)O[C@@H]3[C@H]2O1`, the MIC – broadly, the lowest concentration found to suppress growth – was found to be 250 µg/mL (≈ 659 µM).
In turn, `CC1(C)O[C@H]2O[C@@H]3COB(c4cccc(/N=C/c5ccccc5O)c4)O[C@@H]3[C@H]2O1` displayed an MIC of 125 µg/mL (≈ 316 µM).

A further assay relates to Salmonella typhi. As to the kind of experiment: Antibacterial activity against Salmonella typhi measured after 24 hrs by NCCL protocol based broth dilution method. Format: functional, Salmonella enterica subsp. enterica serovar Typhi. Conditions: Salmonella enterica. A general note: Broth dilution looks for growth in wells or tubes with falling amounts of substance.
`CC1(C)O[C@H]2O[C@@H]3COB(c4cccc(/C=N/c5ccccc5)c4)O[C@@H]3[C@H]2O1`: the MIC amounted to 62.5 µg/mL (≈ 165 µM).
Compound `CC1(C)O[C@H]2O[C@@H]3COB(c4cccc(/N=C/c5ccccc5O)c4)O[C@@H]3[C@H]2O1` displayed an MIC of 62.5 µg/mL (≈ 158 µM).

In another assay the test system is Aspergillus fumigatus. As to the kind of experiment: Antifungal activity against Aspergillus fumigatus MTCC 343 measured after 48 hrs by NCCL protocol based broth dilution method. The format is functional. To be noted: MTCC 343, 48 h.
In the case of `CC1(C)O[C@H]2O[C@@H]3COB(c4cccc(/C=N/c5ccccc5)c4)O[C@@H]3[C@H]2O1`, the MIC is 500 µg/mL (≈ 1320 µM).
Same read-out and setting: next, `CC1(C)O[C@H]2O[C@@H]3COB(c4cccc(/N=C/c5ccccc5O)c4)O[C@@H]3[C@H]2O1`: 500 µg/mL (≈ 1270 µM).

For a further assay, the system named is Staphylococcus aureus. The assay can be described thus: Antibacterial activity against Staphylococcus aureus MTCC 3160 measured after 24 hrs by NCCL protocol based broth dilution method. Format: functional. Conditions: MTCC 3160, 24 h.
Consider `CC1(C)O[C@H]2O[C@@H]3COB(c4cccc(/C=N/c5ccccc5)c4)O[C@@H]3[C@H]2O1`, for which 125 µg/mL (≈ 330 µM) was the least that counted as inhibitory (MIC).
On the same count and under the same terms, the value for `CC1(C)O[C@H]2O[C@@H]3COB(c4cccc(/N=C/c5ccccc5O)c4)O[C@@H]3[C@H]2O1` was 250 µg/mL (≈ 633 µM).

Another assay relates to Aspergillus fumigatus. As to the kind of experiment: Antifungal activity against Aspergillus fumigatus MTCC 343 assessed as zone of inhibition at 100 ug/well measured after 48 hrs by agar well diffusion method. The format is functional. Conditions: MTCC 343, 48 h, read-out: DIZ.
Take `CC1(C)O[C@H]2O[C@@H]3COB(c4cccc(/C=N/c5ccccc5)c4)O[C@@H]3[C@H]2O1`: the zone of inhibition at 100 µg/disc is 0 mm.
On the same count and under the same terms, next, `CC1(C)O[C@H]2O[C@@H]3COB(c4cccc(/N=C/c5ccccc5O)c4)O[C@@H]3[C@H]2O1`: 0 mm.

The next assay concerns Streptococcus mutans. As to the kind of experiment: Antibacterial activity against Streptococcus mutans MTCC 497 measured after 24 hrs by NCCL protocol based broth dilution method. Conditions: MTCC 497, 24 h. The format is functional.
Take `CC1(C)O[C@H]2O[C@@H]3COB(c4cccc(/C=N/c5ccccc5)c4)O[C@@H]3[C@H]2O1`: 62.5 µg/mL (≈ 165 µM) was the least that counted as inhibitory (MIC).
On to `CC1(C)O[C@H]2O[C@@H]3COB(c4cccc(/N=C/c5ccccc5O)c4)O[C@@H]3[C@H]2O1`, for which the MIC was found to be 62.5 µg/mL (≈ 158 µM).

The subject of a further assay is Micrococcus luteus. As to the kind of experiment: Antibacterial activity against Micrococcus luteus MTCC 106 assessed as zone of inhibition at 100 ug/well measured after 24 hrs by agar well diffusion method. Format: functional. To be noted: MTCC 106, 24 h, read-out: DIZ.
For the compound `CC1(C)O[C@H]2O[C@@H]3COB(c4cccc(/C=N/c5ccccc5)c4)O[C@@H]3[C@H]2O1`, the zone of inhibition at 100 µg/disc amounted to 14 mm.
Turning to `CC1(C)O[C@H]2O[C@@H]3COB(c4cccc(/N=C/c5ccccc5O)c4)O[C@@H]3[C@H]2O1`, the zone of inhibition at 100 µg/disc was 22 mm.

The next assay deals with Klebsiella pneumoniae. As to the kind of experiment: Antibacterial activity against Klebsiella pneumoniae MTCC 3384 measured after 24 hrs by NCCL protocol based broth dilution method. The format is functional. Conditions: MTCC 3384, 24 h.
For the compound `CC1(C)O[C@H]2O[C@@H]3COB(c4cccc(/C=N/c5ccccc5)c4)O[C@@H]3[C@H]2O1`, it took 125 µg/mL (≈ 330 µM) to inhibit growth (MIC).
On the same count and under the same terms, the value for `CC1(C)O[C@H]2O[C@@H]3COB(c4cccc(/N=C/c5ccccc5O)c4)O[C@@H]3[C@H]2O1` was 125 µg/mL (≈ 316 µM).

In the next assay the test system is Salmonella paratyphi. The assay can be described thus: Antibacterial activity against Salmonella paratyphi measured after 24 hrs by NCCL protocol based broth dilution method. The format is functional, Salmonella enterica subsp. enterica serovar Paratyphi A. Conditions: Salmonella enterica.
As for `CC1(C)O[C@H]2O[C@@H]3COB(c4cccc(/C=N/c5ccccc5)c4)O[C@@H]3[C@H]2O1`, the minimum inhibitory concentration (MIC) was found to be 62.5 µg/mL (≈ 165 µM).
The same measure, in the same setting: next, `CC1(C)O[C@H]2O[C@@H]3COB(c4cccc(/N=C/c5ccccc5O)c4)O[C@@H]3[C@H]2O1`: 250 µg/mL (≈ 633 µM).

A further assay concerns Micrococcus luteus. As to the kind of experiment: Antibacterial activity against Micrococcus luteus MTCC 106 measured after 24 hrs by NCCL protocol based broth dilution method. The format is functional. To be noted: MTCC 106, 24 h.
`CC1(C)O[C@H]2O[C@@H]3COB(c4cccc(/C=N/c5ccccc5)c4)O[C@@H]3[C@H]2O1`: the MIC came to 250 µg/mL (≈ 659 µM).
On the same count and under the same terms, next, `CC1(C)O[C@H]2O[C@@H]3COB(c4cccc(/N=C/c5ccccc5O)c4)O[C@@H]3[C@H]2O1`: 62.5 µg/mL (≈ 158 µM).

In another assay the test system is Klebsiella pneumoniae. The assay can be described thus: Antibacterial activity against Klebsiella pneumoniae MTCC 3384 assessed as zone of inhibition at 100 ug/well measured after 24 hrs by agar well diffusion method. Format: functional. To be noted: MTCC 3384, 24 h, read-out: DIZ.
With `CC1(C)O[C@H]2O[C@@H]3COB(c4cccc(/C=N/c5ccccc5)c4)O[C@@H]3[C@H]2O1`, the zone of inhibition at 100 µg/disc is 19 mm.
On to `CC1(C)O[C@H]2O[C@@H]3COB(c4cccc(/N=C/c5ccccc5O)c4)O[C@@H]3[C@H]2O1`, for which the zone of inhibition at 100 µg/disc turned out to be 16 mm.

The values above are taken from ChEMBL document CHEMBL3822364, “Synthesis, characterization and antimicrobial activity of novel Schiff base tethered boronate esters of 1,2-O-isopropylidene-α-d-xylofuranose” (2016).
